These results are taken from paper PMC7274485, “A symbiotic bacterium of shipworms produces a compound with broad spectrum anti-apicomplexan activity” (PLoS Pathogens, 2020).

One series has as its system Gram positive bacteria. Particulars: at μM concentrations; cited from earlier work.
The subject of the next series is Babesia bovis. Put plainly: B. bovis-infected erythrocyte proliferation, SYBR green incorporation. It counts as cell-based. Particulars: in Bos taurus, infected erythrocytes, 72 hours, read-out: EC50 against B. bovis. On the procedure:
B. bovis and B. bigemina inhibitor response assays were adapted from components of [79–81]. B. bovis and B. bigemina parasites were maintained in bovine erythrocytes under microaerophilic stationary phase conditions in vitro as described elsewhere. Prior to use in growth studies parasites were grown in erythrocytes from which leukocytes were depleted. Cultures were set up at 0.20% parasitized erythrocytes, in quadruplicate, in complete medium supplemented with trtE. Final concentration of DMSO in all cultures was 1%, and was consistent throughout. Following 72h growth under 90% nitrogen, 5% oxygen, 5% carbon dioxide cells were harvested by thorough resuspension, and transferred to a black, opaque 96-well plate. Cells were freeze-thawed at -80°C overnight, then mixed with an equal volume of SYBR Green lysis buffer. Lysis buffer was composed of 20 mM Tris, pH 7.5, 5 mM EDTA, 0.008% (w/v) saponin, 0.08% (v/v) NP40, and contained 0.2 μl 10,000x SYBR Green I dye ml^-1 (S7563; Invitrogen; Carlsbad, CA). Plates were incubated for one hour at room temperature in the dark prior to reading in a microplate reader, at 485 nm excitation and 528 nm emission wavelengths.

The test system of another series is Cryptosporidium parvum. Put plainly: Neonatal mouse model of Cryptosporidium parvum infection. It counts as in vivo, mice. Conditions: for Number of parasites in the intestine (histology infection score): 2 mg/kg orally every 12 hours, four doses, 5 days post infection, purification method 1. As to the method:
Of all apicomplexans that infect both humans and domesticated animals, Cryptosporidium is a particular challenge for human and veterinary medicine as there is currently no effective treatment for this parasite. We chose to evaluate the in vivo efficacy of trtE using a neonatal mouse model of C. parvum infection. […] In a preliminary experiment, ten, 8 day old mice were infected with C. parvum and then treated with four doses of 2 mg/kg of trtE (purification method 1) given orally every 12 hours for 2 days. Control mice received DMSO vehicle control. Five days post infection, mice were euthanized and the intestines processed for histology. Infection was scored by visual evaluation of infection intensity throughout the intestine by an investigator blinded to treatment. […] Eight-day-old mice, infected with C. parvum, were treated orally twice daily with trtE at 0.4, 4 or 40 mg/kg beginning two days post-infection and continuing for 2 days. On day 5, mice were euthanized and intestines processed for quantitative PCR to quantify infection.
8-day-old mice were infected with 5x10^4 oocysts by oral gavage. In the initial preliminary experiment using trtE purified by method 1, mice were treated 48 hrs post infection with 2 mg/kg trtE every 12 hours by oral gavage for a total of 4 treatments. Control mice received vehicle control (DMSO diluted in DMEM containing 10% fetal calf serum). Mice were sacrificed 5 days post infection and intestines prepared for histological evaluation. Slides were blinded and the intensity of infection scored in the terminal jejunum, ileum, caecum and colon as previously described. Infection intensity scores for each region were added together to give a total infection score for the animal.
In the second set of experiments, mice were infected and treated as before, with 0.4, 4 or 40 mg/kg of trtE purified using method 2. Control mice received vehicle control in parallel. Mice were sacrificed 5 days post-infection and infection quantified by qPCR as previously described. The experiment was conducted three times.

In series [1] the test system is intracellular T. gondii RH strain. Put plainly: Immunofluorescence assay (anti-SAG1) of T. gondii-infected HFF cells. It counts as cell-based, Toxoplasma gondii. Conditions: RH strain in HFF; 60 nM trtE for 24 hours (Fig 2B). An excerpt:
For our initial study, we chose to look for anti-apicomplexan compounds in Teredinibacter turnerae. T. turnerae is a gill symbiotic bacterium common to many species of shipworms. We grew two strains of T. turnerae, T7901 [1] and T7902 [24], in shipworm bacterial media (SBM), pelleted the cells and tested the culture supernatants for activity against T. gondii. We chose T. gondii, a ubiquitous coccidian parasite, as a target parasite because it represents a significant human and animal pathogen, it is easily propagated in vitro and is amenable to genetic manipulation. T. gondii is often used as a model for other, more challenging apicomplexans. […] Parasites were evaluated after 24 hours of treatment by immunofluorescence (IFA) microscopy with rabbit antibody to the T. gondii surface antigen, SAG1 [27]. […]
For all IFAs, the investigator reading the slides and collecting images was blind to the sample treatment. […] 24 hours post treatment, infected cells were fixed with methanol, and parasites detected with rabbit anti-SAG1 antibody for T. gondii or rabbit anti-gp15 for C. parvum as we have described previously. […] This CE11 line is transiently transfected with a plasmid that expresses nanoluciferase from a B. divergens promoter and green fluorescence protein-blasticidin (gfp-bsd) from the selection cassette. […]

“Also recorded” adds a separate entry of the source.

Consider `CC1CCC=CC=CCCC(O)CC(=O)CC2CCC(C)C3(O2)O[B-]24OC(C(=O)O1)C1(OC(CCC1C)CC(=O)CC(O)CCC=CC=CCCC(C)OC(=O)C3O2)O4` (stereo not drawn) [trtE, tartrolon E], for which the “Activity of trtE against Gram positive bacteria” value with Gram positive bacteria is “active”. Also, the EC50 (usually the midpoint of the concentration-response curve) with Babesia bovis was 15.9 nM. Further, the “Number of parasites in the intestine (histology infection score)” value is “significantly reduced the number of parasites” in the series on Cryptosporidium parvum and “significantly reduced the number of parasites in the intestine” with Cryptosporidium parvum (listed as TrtE). In addition, in the series with Cryptosporidium parvum (4 mg/kg orally twice daily for 2 days from two days post-infection, day 5, purification method 2), the “Reduction of intestinal Cryptosporidium infection (qPCR)” value is recorded as 85%. In the series on Cryptosporidium parvum (40 mg/kg orally twice daily for 2 days from two days post-infection, day 5, purification method 2), the “Intestinal Cryptosporidium infection (qPCR)” value is on record as “nearly eliminated”. In the series with Cryptosporidium parvum (four doses of 40 mg/kg over two days), the “Overt signs of toxicity in neonatal mice (discussion)” value is “did not exhibit overt signs of toxicity”. Further, the “Overt signs of toxicity in trtE treated neonatal mice” value with Cryptosporidium parvum (oral doses up to 40 mg/kg twice daily for 2 days) was “no overt toxicity was observed; also recorded: did not observe overt toxicity; also recorded: no overt signs of toxicity”. Moreover, the “Effect of purified trtE on intracellular T. gondii (IFA)” value in series [1] is “inhibited intracellular T. gondii growth”.
